Results reported in article PMC6010046, “Evaluation of polyphenols from Broussonetia papyrifera as coronavirus protease inhibitors” (Journal of Enzyme Inhibition and Medicinal Chemistry, 2017).
“Also recorded” adds a separate entry of the source. Like-named read-outs stand apart in the source and are kept apart here.

How the values were obtained:
SARS-CoV 3CL^pro = SARS-CoV 3CL^pro (Severe acute respiratory syndrome coronavirus, UniProt P0C6X7); experiment: biochemical
MERS-CoV PL^pro = MERS-CoV PL^pro (Middle East respiratory syndrome-related coronavirus, UniProt K9N7C7); experiment: biochemical
MERS-CoV PL^pro, sequence (K9N7C7 1436-1803 limits assumed): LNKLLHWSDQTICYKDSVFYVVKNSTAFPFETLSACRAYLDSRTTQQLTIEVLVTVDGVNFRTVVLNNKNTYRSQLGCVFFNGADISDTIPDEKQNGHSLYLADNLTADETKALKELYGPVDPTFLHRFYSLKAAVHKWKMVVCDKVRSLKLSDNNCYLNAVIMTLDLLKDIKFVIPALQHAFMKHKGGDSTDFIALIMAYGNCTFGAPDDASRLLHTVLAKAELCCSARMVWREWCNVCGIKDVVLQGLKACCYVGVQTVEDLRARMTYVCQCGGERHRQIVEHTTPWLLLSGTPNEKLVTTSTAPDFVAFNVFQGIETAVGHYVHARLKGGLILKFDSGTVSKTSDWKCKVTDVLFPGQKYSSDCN

SARS-CoV PL^pro [1] = biological target: T1, SARS-CoV PL^pro (Severe acute respiratory syndrome coronavirus, UniProt P0C6X7); type: biochemical
MERS-CoV 3CL^pro = MERS-CoV 3CL^pro (Middle East respiratory syndrome-related coronavirus, UniProt K9N7C7); experiment: biochemical
MERS-CoV 3CL^pro, sequence (K9N7C7 3247-3553 limits assumed): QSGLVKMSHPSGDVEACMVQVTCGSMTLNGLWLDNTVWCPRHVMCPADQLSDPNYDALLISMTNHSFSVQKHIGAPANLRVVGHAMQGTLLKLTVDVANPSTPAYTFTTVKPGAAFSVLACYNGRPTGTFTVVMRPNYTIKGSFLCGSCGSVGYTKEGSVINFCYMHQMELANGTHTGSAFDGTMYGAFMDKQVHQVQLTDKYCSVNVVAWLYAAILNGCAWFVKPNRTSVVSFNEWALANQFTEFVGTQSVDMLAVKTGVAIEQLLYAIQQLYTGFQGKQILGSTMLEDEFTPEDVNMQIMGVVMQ

SARS-CoV PL^pro [2] = biological target: T1, SARS-CoV PL^pro; experiment: biochemical; type: binding; conditions: for kon: read-out: association rate constant ka; for koff: read-out: dissociation rate constant kd

Compound	IC50 (SARS-CoV 3CL^pro) [µM]	IC50 (MERS-CoV PL^pro) [µM]	SARS-CoV PL^pro, LRLRGG-AMC, Inhibition type (SARS-CoV PL^pro [1])	IC50 (MERS-CoV PL^pro; pH 5.5, read-out: MERS-CoV PL^pro, IC50) [µM]	IC50 (MERS-CoV 3CL^pro; pH 6, read-out: MERS-CoV 3CL^pro, IC50) [µM]	IC50 (MERS-CoV 3CL^pro) [µM]	Kd (SARS-CoV PL^pro [2]) [µM]	kon (SARS-CoV PL^pro [2]) [M⁻¹ s⁻¹]	koff (SARS-CoV PL^pro [2]) [s⁻¹]	melting point [°C]
CC(C)=CCc1c([C@@H]2CCc3ccc(O)cc3O2)cc2c(c1O)OC(C)(C)C=C2 [Compound 7, kazinol B]	233 ± 6.7	94.9 ± 13.1	Noncompetitive (36.7 ± 2.7)	–	–	–	–	–	–	–
CC(C)=CCc1cc([C@@H]2CCc3ccc(O)cc3O2)c(CC=C(C)C)c(O)c1O [Compound 6, kazinol A]	84.8 ± 10.4	88.5 ± 3.9	Noncompetitive (40.5 ± 3.4)	–	–	–	–	–	–	–
O=c1c(O[C@@H]2O[C@H](CO)[C@H](O)[C@H](O)[C@H]2O)c(-c2ccc(O)c(O)c2)oc2cc(O)cc(O)c12 [Quercetin-β-galactoside, quercetin-β-galactoside, reference compound]	–	–	Noncompetitive (56.1 ± 2.5)	129 ± 14.5	68 ± 2.4	–	–	–	–	–
CC(C)=CCc1c(CCCc2ccc(O)cc2O)cc(O)c(O)c1CC=C(C)C [Compound 9, kazinol F]	43.3 ± 10.4	39.5 ± 5.1	Noncompetitive (12.1 ± 0.7)	–	–	135 ± 5.1	–	–	–	–
CC(C)=CCc1cc(C2CCc3ccc(O)cc3O2)cc(O)c1O (stereo not drawn) [Compound 5, 3′-(3-methylbut-2-enyl)-3′,4′,7-trihydroxyflavane]	30.2 ± 6.8	48.8 ± 6.6	Noncompetitive (15.9 ± 0.8)	–	–	34.7 ± 2	–	–	–	–
CC(C)=CCc1cc(C(=O)/C=C/c2ccc(O)c(O)c2)c(O)cc1O [Compound 2, broussochalcone A]	88.1 ± 13	42.1 ± 5	noncompetitive inhibition; also recorded: Noncompetitive (8.0 ± 0.4)	–	–	36.2 ± 0.4	130	29.9	0.00388	–
COc1cc(O)ccc1CCCc1cc(O)c(O)c(CC=C(C)C)c1CC=C(C)C [Compound 10, kazinol J]	64.2 ± 1.7	55 ± 1.3	Noncompetitive (10.7 ± 0.9)	–	–	109 ± 3.7	804	7.3	0.00591	–
O=C(/C=C/c1ccc(O)cc1)c1ccc(O)cc1O [Isoliquiritigenin, isoliquiritigenin, reference compound]	61.9 ± 11	–	Noncompetitive (23.0 ± 0.9)	–	–	–	–	–	–	–
O=c1c(O)c(-c2ccc(O)cc2)oc2cc(O)cc(O)c12 [Kaempferol, kaempferol, reference compound]	116 ± 7.1	206.6 ± 1.7	Noncompetitive (13.7 ± 0.8)	–	–	35.3 ± 5.3	–	–	–	–
CC(C)=CCc1cc(-c2oc3cc(O)c(CC=C(C)C)c(O)c3c(=O)c2O)cc(O)c1O [Compound 4, papyriflavonol A]	104 ± 17.4	113 ± 7.3	noncompetitive inhibition; also recorded: Noncompetitive (5.9 ± 0.4)	–	–	64.5 ± 4.9	212	21	0.00445	202 to 204
CC(C)=CCc1cc(C(=O)/C=C/c2ccc(O)cc2)c(O)cc1O [Compound 1, broussochalcone B]	57.8 ± 0.5	113 ± 10.1	Noncompetitive (6.6 ± 0.5)	–	–	27.9 ± 1.2	74	56	0.00412	–
CC(C)=CCc1c([C@@H]2CCc3ccc(O)cc3O2)cc2c(c1O)OC(C)(C)C(O)C2O (stereo partly drawn) [Compound 8, broussoflavan A]	92.4 ± 2.1	49.1 ± 7.5	Noncompetitive (23.4 ± 1.6)	–	–	126 ± 17.4	–	–	–	238 to 240
CC1(C)C=Cc2cc(C(=O)/C=C/c3ccc(O)cc3)c(O)cc2O1 [Compound 3, 4-hydroxyisolonchocarpin]	203 ± 3.9	172 ± 10.2	Noncompetitive (27.7 ± 1.7)	–	–	194 ± 15.6	–	–	–	–
O=c1c(O)c(-c2ccc(O)c(O)c2)oc2cc(O)cc(O)c12 [Quercetin, quercetin, reference compound]	–	–	Noncompetitive (7.0 ± 0.7)	–	–	34.8 ± 1.2	–	–	–	–
